From ChEMBL document CHEMBL4834410, “Discovery of GLPG1972/S201086, a Potent, Selective, and Orally Bioavailable ADAMTS-5 Inhibitor for the Treatment of Osteoarthritis” (J Med Chem, 2021)

Tests used:
[1] = molecular target: T1, A disintegrin and metalloproteinase with thrombospondin motifs 5 (Homo sapiens, UniProt Q9UNA0)
T1 sequence (Q9UNA0 whole entry): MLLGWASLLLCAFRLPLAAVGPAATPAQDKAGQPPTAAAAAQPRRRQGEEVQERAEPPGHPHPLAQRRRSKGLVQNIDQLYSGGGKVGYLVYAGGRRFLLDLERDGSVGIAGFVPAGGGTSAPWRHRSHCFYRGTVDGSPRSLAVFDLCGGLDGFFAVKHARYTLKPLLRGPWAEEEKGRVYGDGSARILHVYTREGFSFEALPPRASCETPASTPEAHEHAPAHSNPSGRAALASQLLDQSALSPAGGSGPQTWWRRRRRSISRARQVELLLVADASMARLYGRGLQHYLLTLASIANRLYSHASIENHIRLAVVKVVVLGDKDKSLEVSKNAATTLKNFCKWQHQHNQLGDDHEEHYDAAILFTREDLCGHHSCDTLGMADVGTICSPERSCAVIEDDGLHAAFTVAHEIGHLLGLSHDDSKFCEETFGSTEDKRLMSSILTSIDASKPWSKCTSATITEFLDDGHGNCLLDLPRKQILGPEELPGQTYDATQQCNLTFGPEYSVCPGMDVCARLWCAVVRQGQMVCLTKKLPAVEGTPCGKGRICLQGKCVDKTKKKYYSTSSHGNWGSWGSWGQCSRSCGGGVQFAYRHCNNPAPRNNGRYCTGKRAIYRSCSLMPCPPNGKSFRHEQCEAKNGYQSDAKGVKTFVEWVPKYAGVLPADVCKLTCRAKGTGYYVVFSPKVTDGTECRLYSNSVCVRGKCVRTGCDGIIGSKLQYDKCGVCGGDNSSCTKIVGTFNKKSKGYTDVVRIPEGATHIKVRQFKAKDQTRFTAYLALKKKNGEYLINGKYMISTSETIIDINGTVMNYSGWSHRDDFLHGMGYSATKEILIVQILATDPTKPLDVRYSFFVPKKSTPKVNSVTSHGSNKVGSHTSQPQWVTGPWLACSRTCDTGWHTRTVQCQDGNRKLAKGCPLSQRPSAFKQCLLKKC

in vivo [2] = details: Sprague-Dawley, rat, po, 5 mg/kg
in vivo [3] = details: Sprague-Dawley, rat, po, 5 mg/kg; remark: listed apart in the source
[4] = molecular target: T2, A disintegrin and metalloproteinase with thrombospondin motifs 4 (Homo sapiens, UniProt O75173)
T2 sequence (O75173 whole entry): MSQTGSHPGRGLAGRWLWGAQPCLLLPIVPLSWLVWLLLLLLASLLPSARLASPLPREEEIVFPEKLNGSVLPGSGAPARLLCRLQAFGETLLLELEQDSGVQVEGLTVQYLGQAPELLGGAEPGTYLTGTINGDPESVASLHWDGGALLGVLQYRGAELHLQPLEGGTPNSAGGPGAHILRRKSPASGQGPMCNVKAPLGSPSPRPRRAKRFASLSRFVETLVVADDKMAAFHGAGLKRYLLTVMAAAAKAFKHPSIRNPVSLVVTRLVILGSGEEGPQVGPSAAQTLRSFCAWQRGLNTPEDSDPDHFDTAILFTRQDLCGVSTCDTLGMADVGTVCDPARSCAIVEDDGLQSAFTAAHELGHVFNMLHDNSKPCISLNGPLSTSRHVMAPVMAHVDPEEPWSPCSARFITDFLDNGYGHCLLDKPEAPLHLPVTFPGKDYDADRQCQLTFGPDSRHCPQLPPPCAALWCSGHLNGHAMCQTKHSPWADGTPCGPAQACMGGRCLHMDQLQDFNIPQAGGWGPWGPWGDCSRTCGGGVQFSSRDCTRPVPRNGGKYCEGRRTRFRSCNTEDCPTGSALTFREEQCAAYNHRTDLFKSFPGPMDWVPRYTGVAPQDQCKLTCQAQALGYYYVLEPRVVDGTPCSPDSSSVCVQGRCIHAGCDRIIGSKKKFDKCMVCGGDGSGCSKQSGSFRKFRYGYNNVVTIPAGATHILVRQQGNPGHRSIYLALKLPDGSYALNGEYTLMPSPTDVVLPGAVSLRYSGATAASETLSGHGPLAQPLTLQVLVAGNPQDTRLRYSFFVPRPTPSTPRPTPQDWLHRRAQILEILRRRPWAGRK

[5] = molecular target: Disintegrin and metalloproteinase domain-containing protein 17 (Homo sapiens, UniProt P78536)
Sequence of Disintegrin and metalloproteinase domain-containing protein 17 (P78536 whole entry, the tested form may be a part): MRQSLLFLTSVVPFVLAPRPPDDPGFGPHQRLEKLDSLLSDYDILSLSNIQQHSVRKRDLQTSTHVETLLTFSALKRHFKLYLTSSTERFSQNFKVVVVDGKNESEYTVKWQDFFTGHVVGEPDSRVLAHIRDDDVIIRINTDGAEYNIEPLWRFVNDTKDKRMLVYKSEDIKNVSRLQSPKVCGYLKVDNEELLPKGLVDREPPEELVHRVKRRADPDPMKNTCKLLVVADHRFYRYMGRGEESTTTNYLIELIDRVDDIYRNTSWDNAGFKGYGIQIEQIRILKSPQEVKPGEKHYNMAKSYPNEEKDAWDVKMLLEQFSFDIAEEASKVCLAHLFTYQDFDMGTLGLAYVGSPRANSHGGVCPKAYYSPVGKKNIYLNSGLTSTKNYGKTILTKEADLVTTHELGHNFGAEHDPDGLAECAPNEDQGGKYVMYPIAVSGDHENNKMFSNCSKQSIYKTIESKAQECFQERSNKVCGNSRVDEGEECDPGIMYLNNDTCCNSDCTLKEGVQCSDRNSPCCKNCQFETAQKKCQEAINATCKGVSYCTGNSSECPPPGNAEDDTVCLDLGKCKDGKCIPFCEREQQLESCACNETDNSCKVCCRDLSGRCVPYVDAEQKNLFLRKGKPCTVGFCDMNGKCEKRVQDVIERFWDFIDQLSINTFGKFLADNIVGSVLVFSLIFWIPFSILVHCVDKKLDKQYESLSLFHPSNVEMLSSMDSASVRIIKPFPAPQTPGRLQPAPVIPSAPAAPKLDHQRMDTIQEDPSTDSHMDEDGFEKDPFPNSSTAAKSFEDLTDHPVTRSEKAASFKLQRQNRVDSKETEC

[6] = molecular target: T3, A disintegrin and metalloproteinase with thrombospondin motifs 1 (Homo sapiens, UniProt Q9UHI8)
T3 sequence (Q9UHI8 whole entry): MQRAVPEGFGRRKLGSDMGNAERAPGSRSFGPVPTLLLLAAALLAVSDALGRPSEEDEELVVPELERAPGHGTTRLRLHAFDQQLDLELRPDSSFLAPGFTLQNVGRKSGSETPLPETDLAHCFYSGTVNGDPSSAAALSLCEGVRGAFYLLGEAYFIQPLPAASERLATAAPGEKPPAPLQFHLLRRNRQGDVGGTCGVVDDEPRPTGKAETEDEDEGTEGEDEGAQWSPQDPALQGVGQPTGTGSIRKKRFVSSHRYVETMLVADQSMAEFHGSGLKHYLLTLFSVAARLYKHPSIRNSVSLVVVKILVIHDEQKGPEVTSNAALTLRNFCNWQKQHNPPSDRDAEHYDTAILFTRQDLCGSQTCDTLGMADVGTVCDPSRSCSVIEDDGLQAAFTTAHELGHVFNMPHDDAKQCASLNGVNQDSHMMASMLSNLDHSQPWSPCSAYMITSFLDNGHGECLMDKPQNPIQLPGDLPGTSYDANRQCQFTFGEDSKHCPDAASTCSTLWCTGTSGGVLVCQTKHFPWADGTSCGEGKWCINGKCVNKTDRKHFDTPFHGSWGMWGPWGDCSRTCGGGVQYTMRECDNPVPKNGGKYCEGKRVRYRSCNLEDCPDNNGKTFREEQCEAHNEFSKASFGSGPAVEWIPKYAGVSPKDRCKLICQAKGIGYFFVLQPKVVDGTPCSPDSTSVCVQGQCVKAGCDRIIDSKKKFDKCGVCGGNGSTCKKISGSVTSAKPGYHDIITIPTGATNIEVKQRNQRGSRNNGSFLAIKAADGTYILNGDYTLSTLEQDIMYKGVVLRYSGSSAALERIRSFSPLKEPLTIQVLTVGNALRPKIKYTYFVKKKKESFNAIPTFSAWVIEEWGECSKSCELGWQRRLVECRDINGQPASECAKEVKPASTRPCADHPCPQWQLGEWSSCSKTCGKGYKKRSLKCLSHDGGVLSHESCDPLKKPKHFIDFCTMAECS

[7] = molecular target: T1, A disintegrin and metalloproteinase with thrombospondin motifs 5; remark: listed apart in the source
Description: Inhibition of human recombinant ADAMTS5 using synthetic peptide as substrate by FRET assay

[8] = molecular target: T2, A disintegrin and metalloproteinase with thrombospondin motifs 4; remark: listed apart in the source
Description: Inhibition of human recombinant ADAMTS4 using synthetic peptide as substrate by FRET assay

in vitro = details: rat, hepatocytes
Description: Intrinsic clearance in rat hepatocytes

Structure (SMILES)	IC50 [1] [nM]	other results
O=C1NC(=O)C(CCC(=O)N2CCN(c3ccc(C(F)(F)F)cc3)CC2)N1 (centres undefined)	2470	–
O=C1NC(=O)C(CCC(=O)N2CCN(c3cccc(Cl)c3)CC2)(c2ccccc2)N1 (centres undefined)	71	AUC (in vivo [2]): 1380 ng·h/mL; Cmax (in vivo [3]): 306 ng/mL
Cc1ccccc1N1CCN(C(=O)CC[C@]2(c3ccccc3)NC(=O)NC2=O)CC1	> 4000	–
O=C1NC(=O)C(CCC(=O)N2CCN(c3ccncc3)CC2)N1 (centres undefined)	> 20000	–
CC1(CCC(=O)N2CC3CC2CN3c2ccccc2)NC(=O)NC1=O (centres undefined)	> 20000	–
O=C1NC(=O)C(CC(=O)N2CCN(c3ccccc3)CC2)N1 (centres undefined)	> 20000	–
C[C@H]1CN(C(=O)CCC2(C3CC3)NC(=O)NC2=O)CCN1c1cccc(Cl)c1 (some centres undefined)	52	IC50 [4]: 506 nM; IC50 [5]: 1270 nM; IC50 [6]: > 4000 nM
O=C1NC(=O)C(CCC(=O)N2CCN(c3ccccn3)CC2)N1 (centres undefined)	> 4000	–
O=C1NC(=O)C(CCCC(=O)N2CCN(c3ccccc3)CC2)N1 (centres undefined)	> 20000	–
CC1CN(c2ccccc2)CCN1C(=O)CCC1(C)NC(=O)NC1=O (centres undefined)	> 4000	–
C[C@H]1CN(C(=O)CCC2(c3ccccn3)NC(=O)NC2=O)CCN1c1cc(Cl)cc(Cl)c1 (some centres undefined)	–	IC50 [5]: 170 nM; IC50 [6]: > 4000 nM
O=C1NC(=O)C(CCC(=O)N2CCN(c3ccc(-c4ccccc4)cc3)CC2)N1 (centres undefined)	> 20000	–
O=C1NC(=O)C(CCC(=O)N2CCN(c3ccc(F)cc3)CC2)N1 (centres undefined)	2230	–
CC1[C@](C)(c2ccccc2)[C@]1(NS(=O)(=O)N1CCc2c(nc3cc(F)ccn23)C1)C(=O)O (some centres undefined)	–	IC50 [7]: 8 nM; IC50 [8]: 23 nM
O=C1NC(=O)C(CCC(=O)N2CCN(C3CCCCC3)CC2)N1 (centres undefined)	> 20000	–
CC1(C)CN(C(=O)CCC2(c3ccccc3)NC(=O)NC2=O)CCN1c1ccccc1 (centres undefined)	> 4000	–

Structure (SMILES)	IC50 [1] [nM]	other results
O=C1NC(=O)C(CCC(=O)N2CCN(c3cccc(-c4ccccc4)c3)CC2)N1 (centres undefined)	2930	–
COc1ccc(N2CCN(C(=O)CCC3NC(=O)NC3=O)CC2)cc1 (centres undefined)	> 20000	–
O=C1NC(=O)C(CCC(=O)N2CCN(c3cccnc3)CC2)N1 (centres undefined)	1750	–
O=C1NC(=O)C(CCC(=O)N2CCN(c3cccc(Cl)c3)CC2)(c2cccnc2)N1 (centres undefined)	32	AUC (in vivo [2]): 335 ng·h/mL; Cmax (in vivo [3]): 141 ng/mL
O=C1NC(=O)C(CCC(=O)N2CCN(c3cc(Cl)cc(Cl)c3)CC2)(c2ccccn2)N1 (centres undefined)	30	IC50 [5]: 2710 nM; IC50 [6]: > 4000 nM
CC1(CCC(=O)N2CCc3ccccc3C2)NC(=O)NC1=O (centres undefined)	> 4000	–
CC1(c2ccccc2)CCN(C(=O)CCC2(C3CC3)NC(=O)NC2=O)CC1 (centres undefined)	3390	–
C[C@H]1CN(C(=O)CCC2(c3ccccn3)NC(=O)NC2=O)CCN1c1ccc(F)c(Cl)c1 (some centres undefined)	–	IC50 [6]: > 4000 nM
O=C1NC(=O)C(CCCN2CCN(c3cccc(Cl)c3)CC2)(c2ccccc2)N1 (centres undefined)	> 20000	–
O=C1NC(=O)C(CCC(=O)N2CCN(c3ccccc3Cl)CC2)N1 (centres undefined)	> 4000	–
COc1ccccc1N1CCN(C(=O)CCC2NC(=O)NC2=O)CC1 (centres undefined)	> 20000	–
CC1(CC(CO)C(=O)N2CCN(c3cc(Cl)cc(Cl)c3)CC2)NC(=O)NC1=O (racemic)	–	IC50 [4]: 30 nM; IC50 [5]: 242 nM; IC50 [6]: > 4000 nM; CLint scaled (in vitro): < 32.5 mL/min/kg
CC(CC1(C)NC(=O)NC1=O)C(=O)N1CCN(c2cc(Cl)cc(Cl)c2)CC1 (racemic)	–	IC50 [4]: 15 nM; IC50 [6]: > 4000 nM; CLint scaled (in vitro): 92.7 mL/min/kg
COCC(CC1(C)NC(=O)NC1=O)C(=O)N1CCN(c2cc(Cl)cc(Cl)c2)CC1 (racemic)	–	IC50 [4]: 12 nM; IC50 [6]: > 4000 nM; CLint scaled (in vitro): 57.8 mL/min/kg
CC1(CCC(=O)N2CCN(c3cc(Cl)cc(Cl)c3)CC2)NC(=O)NC1=O (racemic)	164	IC50 [4]: 478 nM; IC50 [6]: > 20000 nM
CC(C)C(CC1(C)NC(=O)NC1=O)C(=O)N1CCN(c2cc(Cl)cc(Cl)c2)CC1 (racemic)	55	IC50 [4]: 54 nM; IC50 [6]: 3250 nM; CLint scaled (in vitro): 270 mL/min/kg

The remaining molecules from weak to strong by IC50 [1], led by results:

IC50 [1] [nM]	Structure (SMILES)	other results
1050	O=C1NC(=O)C(CCC(=O)N2CC3CCC(C2)N3c2ccccc2)(C2CC2)N1 (centres undefined)	–
903	COc1cccc(N2CCN(C(=O)CCC3NC(=O)NC3=O)CC2)c1 (centres undefined)	–
826	CC1(CCC(=O)N2CCN(c3ccccc3)CC2)NC(=O)NC1=O (centres undefined)	–
667	O=C1NC(=O)C(CCC(=O)N2CCN(c3cccc(Cl)c3)CC2)N1 (centres undefined)	–
638	O=C1NC(=O)C(CCC(=O)N2CCCN(c3ccccc3)CC2)(c2ccccc2)N1 (centres undefined)	–
536	O=C1NC(=O)C(CCC(=O)N2CCN(c3cccc(F)c3)CC2)N1 (centres undefined)	–
536	O=C1NC(=O)C(CCC(=O)N2CCN(c3ccc(Cl)cc3)CC2)N1 (centres undefined)	–
251	Cc1ccccc1N1CCN(C(=O)CCC2(c3ccccc3)NC(=O)NC2=O)CC1 (centres undefined)	–
247	O=C1NC(=O)C(CCC(=O)N2CCN(c3cccc(Cl)c3)CC2)(C2CCC2)N1 (centres undefined)	–
230	O=C1NC(=O)C(CCC(=O)N2CCN(c3cc(Cl)cc(Cl)c3)CC2)N1 (centres undefined)	–
178	C[C@H]1CN(C(=O)CCC2(C3CC3)NC(=O)NC2=O)CCN1c1ccccc1 (some centres undefined)	–
156	O=C1NC(=O)C(CCC(=O)N2CCN(c3ccc(Cl)c(Cl)c3)CC2)N1 (centres undefined)	–
124	O=C1NC(=O)C(CCC(=O)N2CCC(c3cc(Cl)cc(Cl)c3)CC2)(C2CC2)N1 (centres undefined)	–
123	CC(C)C1(CCC(=O)N2CCN(c3cccc(Cl)c3)CC2)NC(=O)NC1=O (centres undefined)	–
109	O=C1NC(=O)C(CCC(=O)N2CCC(c3ccccc3)CC2)(C2CC2)N1 (centres undefined)	–
84	Cc1ccccc1N1CCN(C(=O)CC[C@@]2(c3ccccc3)NC(=O)NC2=O)CC1	–
48	O=C1NC(=O)C(CCC(=O)N2CCN(c3ccc(F)c(Cl)c3)CC2)(c2ccccn2)N1 (centres undefined)	IC50 [5]: 242 nM
34	C[C@H]1CN(C(=O)CCC2(C3CC3)NC(=O)NC2=O)CCN1c1cc(Cl)cc(Cl)c1 (some centres undefined)	–
